Assay results: patent publication US20180369421A1, “METHOD FOR REDUCING THE PLACEBO EFFECT IN CLINICAL TRIALS” (priority 2017, published 2018)
Several values for one entry are separate records, joined by “and”; a condition that tells them apart may be missing. Equal entries are not always repeated.

Columns and labels:
[1] = cited from earlier work
[2] = test system: constipation in subjects not on any adjunctive medication that could cause constipation; experiment: Clinical trial of two doses of a new product for the treatment of constipation in subjects not on adjunctive medication that could cause constipation, with Acebo arms (Example 3); format: in vivo, human; settings: Acebo arm, twice daily
From the text: A clinical trial is being conducted to measure of the efficacy of two different doses of a new product for the treatment of constipation in subjects not on any adjunctive medication that could cause constipation. Nine hundred sixty (960) subjects are enrolled. The investigational product is supplied by the investigational treatment team. Subjects who have been on both of the potential Acebos, nortriptyline and St John's wort, will be excluded from this study.
All subjects sign an informed consent document prior to beginning the clinical research trial. They are all informed of the following: • 1. 300 of the subjects will be randomized to the new investigational medication, product Y, once daily, and the known benefits and the known and potential side effects of Product Y are disclosed. To keep the study blinded, subjects will take a pill twice a day, but one of their doses will be a placebo. • 2. 300 of the subjects will be randomized to the new investigational medication, product Y, twice daily, and the known benefits and the known and potential side effects of Product Y are disclosed. • 3. 300 of the subjects will be randomized to placebo taken twice a day. • 4. […]

[3] = drugs.com; cited from earlier work
[4] = test system: constipation in subjects already on an opioid pain medication; experiment: Clinical trial of a new product for the treatment of constipation in subjects already on an opioid pain medication, with Acebo arms (Example 2); format: in vivo, human; settings: Acebo arm
From the text: A clinical trial is being conducted to measure the efficacy of a new product for the treatment of constipation in subjects already on an opioid pain medication. Nine hundred sixty (960) subjects are enrolled. All are maintained on their present pain medication regimen supplied by the clinical treatment team. The investigational product is supplied by the investigational treatment team as well. The opioid pain medication regimen continues as it was; the investigational product is taken either once or twice per day in a randomized manner.
All subjects sign an informed consent document prior to beginning the clinical research trial. They are all informed of the following: • 1. 300 of the subjects will be randomized to the new investigational medication, product Y, once daily, and the known benefits and the known potential side effects of Product Y are disclosed. To keep the study blinded, subjects will take a pill twice a day, but one of their doses will be a placebo. • 2. 300 of the subjects will be randomized to the new investigational medication, product Y, twice daily, and the known benefits and the known potential side effects of Product Y are disclosed. • 3. 300 of the subjects will be randomized to placebo taken twice a day. • 4.
5. […] Because you could receive an Acebo, you could get worse.

Clc1cccc(Cl)c1N=C1NCCN1 [clonidine]
depression among people who took the drug and reported side effects ([1]; 932 of 31,961 people reported to have side effects): ~3% and 2.92%

N=C(N)NC(=O)Cc1c(Cl)cccc1Cl [guanfacine]
depression as side effect ([1]; in vivo): does not cause depression
fatigue (tiredness), share of people ([1]; on average): 16%
lethargy, share of people ([1]; on average): 6%
somnolence, share of people ([1]; on average): 34%

CNCCC=C1c2ccccc2CCc2ccccc21 [nortriptyline]
worsening in abdominal discomfort [2]: 1%
constipation as side effect, share of the time [3]: ≥ 10%
worsening [4]: 2%
